In publication PMC5967328, “Salvianolic acids from antithrombotic Traditional Chinese Medicine Danshen are antagonists of human P2Y1 and P2Y12 receptors” (Scientific Reports, 2018):
“Also recorded” adds a separate entry of the source. Like-named read-outs stand apart in the source and are kept apart here. One block for each compound: values may come before it.

Tests used:
[1] = parameters: method as in PMID 21569331; settings: rat plasma, cited from earlier work
[2] = target: T1, P2Y12 receptor (Homo sapiens, UniProt Q9H244); assay: [3H]2MeSADP radioligand binding at the P2Y12 receptor (U2OS membranes); parameters: expressed in transfected cells; host or cells: U2OS cells (membrane preparation)
T1 sequence (Q9H244 whole entry): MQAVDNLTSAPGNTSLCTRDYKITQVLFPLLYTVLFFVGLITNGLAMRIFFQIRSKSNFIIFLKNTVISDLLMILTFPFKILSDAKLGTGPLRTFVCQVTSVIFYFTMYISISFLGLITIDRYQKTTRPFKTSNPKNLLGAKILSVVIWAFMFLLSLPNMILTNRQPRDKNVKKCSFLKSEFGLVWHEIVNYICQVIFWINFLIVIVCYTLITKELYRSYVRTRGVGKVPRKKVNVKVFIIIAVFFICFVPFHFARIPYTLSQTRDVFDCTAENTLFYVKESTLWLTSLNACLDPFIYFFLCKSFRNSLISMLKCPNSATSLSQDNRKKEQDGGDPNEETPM
Method: The eleven selected components were further examined in radioligand binding and functional assays. We initially tested the eleven compounds by measuring the inhibition of [^3H]2-methylthioadenosine 5′-diphosphate (2MeSADP) binding at the human P2Y12 receptor (Fig. 1b).
(§1) U2Os cells expressing the P2Y1 or P2Y12 receptors were cultured in DMEM supplemented with 10% fetal bovine serum, 100 Units/ml penicillin, 100 µg/ml streptomycin and 2 µmol/ml glutamine. After reaching confluence, cells were detached from plates by scraping into PBS and centrifuged at 250 g for 5 min. The resulting pellets were re-suspended in ice-cold Tris-HCl buffer (50 mM, pH 7.4) and homogenized. After homogenization and suspension, cells were centrifuged at 1000 g for 10 min and the pellet was discarded. The suspension was re-centrifuged at 20,000 g for 60 min at 4 °C. The pellets were re-suspended, split into aliquots and stored at −80 °C. The protein concentration was measured using the Bradford assay. For P2Y1 and P2Y12 receptor binding assays, saturation curves were measured by addition of various concentrations of 50 µl [^3H]2MeSADP (specific activity, 7.5 Ci/mmol; Movarek Biochemicals, Brea, CA) and 100 μl of membrane suspension to a total of 200 μl of total assay volume. Non-specific binding was determined using 10 µM MRS2500 (Tocris; St. Louis, MO) for the P2Y1 receptor and 10 μM SAR216471 (Tocris; St. Louis, MO) for the P2Y12 receptor. For the displacement assay, various concentrations of inhibitors were incubated with [^3H]2MeSADP (1.0 nM for P2Y1; 0.4 nM for P2Y12) and membrane preparations (20 µg/sample) at 25 °C for 60 min. The separation of bound from free radioligand was accomplished by rapid vacuum filtration of the incubation mixture over GF/B filter using a Brandel cell harvester (Brandel Inc., Gaithersburg, MD). Filters were washed two times with 3 ml of ice-cold Tris-HCl buffer, pH 7.5. Radioactivity on the filters was quantified using a Tri-carb Liquid Scintillation Counter (PerkinElmer Life and Analytical Sciences). 2MeSADP was purchased from Sigma (St. Louis, MO). All other materials were from standard commercial sources and of analytical grade. For radioligand binding, calculation of apparent binding affinities, Ki = IC50/(1 + [radioligand]/Kd), was performed using the nonlinear iterative curve-fitting program of Prism (GraphPad Software Inc., San Diego, CA).

[3] = target: T2, P2Y1 receptor (Homo sapiens, UniProt P47900); assay: [3H]2MeSADP radioligand binding at the P2Y1 receptor (U2OS membranes); parameters: expressed in transfected cells; host or cells: U2OS cells (membrane preparation); settings: for inhibitory effect on [3H]2MeSADP binding to the P2Y1 receptor (initial binding results): in words; for IC50: average
T2 sequence (P47900 whole entry): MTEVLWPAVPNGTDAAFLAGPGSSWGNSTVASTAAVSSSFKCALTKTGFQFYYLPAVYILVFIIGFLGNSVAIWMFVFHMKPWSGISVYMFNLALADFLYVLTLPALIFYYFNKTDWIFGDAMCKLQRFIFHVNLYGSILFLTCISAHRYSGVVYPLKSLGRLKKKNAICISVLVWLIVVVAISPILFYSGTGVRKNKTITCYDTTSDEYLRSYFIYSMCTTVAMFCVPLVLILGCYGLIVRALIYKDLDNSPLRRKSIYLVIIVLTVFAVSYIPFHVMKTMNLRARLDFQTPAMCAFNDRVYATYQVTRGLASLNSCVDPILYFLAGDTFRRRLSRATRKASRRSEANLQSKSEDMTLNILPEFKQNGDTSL
Method: (§2) Both P2Y1 and P2Y12 receptors play important roles in platelet aggregation. Therefore, we also tested the potential effects of SAA, SAB and SAC on the P2Y1 receptor. […] SAA and SAC antagonized 2MeSADP-induced accumulation of inositol 1-phosphate (IP-1) (Fig. 2e). KB values calculated by Schild analysis for the P2Y1 receptor were 9.1 ± 1.5 and 15.6 ± 2.0 µM for SAA and SAC, respectively (Fig. 2f). Thus, the Schild analysis of the antagonist potencies of SAA and SAC for Gq-coupled P2Y1 and Gi-coupled P2Y12 receptors was consistent with their binding affinities measured in the radioligand assays.
as §1
Figure S2. The effects of Tween -20 on the inhibition by SAA (a) and SAC (b) of
[3H]2MeSADP binding to the human P2Y1 recept or. Data are ex pressed Me an ± SD from
2- 3 independent experiments. The average IC50 values of SAA in the absence and
presence of 0.01% Tween- 20 are 21.2 and 19.3 μM, respectivel y. The IC50 values of
SAC in the absence and p resence of 0.01% Tween- 20 are 29.4 and 23.7 μM, respectivel y.
The c ritical micelle concentration (CMC) of Tween -20 is 0.0074%.
(§3) (1 picture or pasted object on this page, not shown here)

[4] = target: T1, P2Y12 receptor; assay: Antagonism of 2MeSADP-induced inhibition of forskolin-stimulated cAMP accumulation, Schild analysis; assay type: cell-based; parameters: expressed in transfected cells; host or cells: U2OS cells
Method: The functional antagonism of these three salvianolic acids against the P2Y12 receptor was measured by their effect on agonist-induced inhibition of forskolin-stimulated cyclic AMP accumulation in P2Y12 receptor-expressing U2OS cells. For example, in a concentration-dependent manner, SAA shifted the agonist response curve to the right without affecting its maximum agonist effect (Fig. 2b). This observation is consistent with competitive antagonism, but allosteric antagonism cannot be excluded. Schild analysis of the antagonism yielded KB values of 24.2 ± 5.9, 33.6 ± 6.4 and 23.7 ± 4.5 µM for SAA, SAB and SAC, respectively (Fig. 2c).
U2Os cells expressing the P2Y12 receptor were cultured in DMEM medium containing 10% fetal bovine serum, 100 units/ml penicillin, 100 µg/ml streptomycin and 2 µmol/ml glutamine. For the assay of cAMP accumulation, cells were plated in 96-well plates in 100 µl medium overnight. Cells were then treated with assay buffer containing rolipram ([…]) and antagonists for 20 min followed by the addition of agonists and incubate for 10 min. After 10 min incubation with agonist, Forskolin (10 μM) was added to the mixture and the incubation was continued for another 10 min. The reaction was terminated upon removal of the supernatant and addition of 100 µl Tween-20 (0.3%). Intracellular cAMP levels were measured with an ALPHAScreen cAMP assay kit as instructed by the manufacturer (PerkinElmer). Binding and functional parameters were calculated using Prism 7.0 software (GraphPAD, San Diego, CA, USA). Data were expressed as mean ± sem.

[5] = target: T3, α1B adrenergic receptor (Homo sapiens, UniProt P35368); assay: [3H]Prazosin binding assay (PDSP)
T3 construct: Psychoactive Drug Screening Program (PDSP)
T3 sequence (P35368 1-520): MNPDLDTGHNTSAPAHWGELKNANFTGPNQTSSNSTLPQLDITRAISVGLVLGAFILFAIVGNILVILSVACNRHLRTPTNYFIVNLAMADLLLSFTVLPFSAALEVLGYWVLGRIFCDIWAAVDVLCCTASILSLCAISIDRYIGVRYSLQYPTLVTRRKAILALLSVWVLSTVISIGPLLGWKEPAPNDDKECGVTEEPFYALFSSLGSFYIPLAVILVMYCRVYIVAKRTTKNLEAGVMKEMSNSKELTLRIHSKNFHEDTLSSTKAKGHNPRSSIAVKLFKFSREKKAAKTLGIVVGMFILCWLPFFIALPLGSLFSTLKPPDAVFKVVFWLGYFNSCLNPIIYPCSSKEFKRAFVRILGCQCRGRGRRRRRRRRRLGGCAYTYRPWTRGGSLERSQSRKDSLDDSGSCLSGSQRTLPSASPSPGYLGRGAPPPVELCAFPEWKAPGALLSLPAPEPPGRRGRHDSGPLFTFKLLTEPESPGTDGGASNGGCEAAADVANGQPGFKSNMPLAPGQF
From the text: We also tested if SAA, SAB and SAC are promiscuously binding compounds, due to the fact that they all have multiple phenolic groups and are thus potentially PAINS[36]. To find other possible targets of the three compounds, we evaluated their potential binding to 45 diverse receptors, transporters and ion channels (human, unless noted) using radioligand binding assays via the Psychoactive Drug Screening Program (PDSP) (Table S1)[37].
Figure S3. Binding activit y of SAB (compound 44297) to the α1B adrenergic receptor was measured b y [ 3H]Prazosin binding assays for three repeats (a-c). Prazosin is an inverse agonist of the α1B adrenergic receptor. Th e av erage Ki o f SAB was determined […]
as §3

[6] = target: T4, adrenergic α1B receptor (Homo sapiens, UniProt P35368); assay: FLIPR agonist and antagonist assays; assay type: cell-based
T4 construct: expressed in transfected cells
T4 sequence (P35368 1-520): T3 sequence (P35368 1-520)
Method: For agonist assay: cell line expressing target receptor was seeded in a 384-well black-wall, clear-bottom plate about 18 hours prior to the day of experiment and maintained at 37 °C/5% CO2. Then, 20 μl of dye-loading solution was added into the wells and the plates were subsequently placed into a 37 °C incubator for 60 min, followed by a 15 min incubation at room temperature. At last, 10 μl of compounds or control agonist were added into respective wells of the assay plate during reading in FLIPR.
For antagonist assay: cell line expressing target receptor was seeded in a 384-well black-wall, clear-bottom plate about 18 hours prior to the day of experiment and maintained at 37 °C/5% CO2. Then the dye-loading solution and 10 μl of control antagonist and test samples were added into respectively wells in sequence. The plates were subsequently placed into a 37 °C incubator for 60 min, followed by a 15 min incubation at room temperature. At last, 12.5 μl of control agonist were added into respective wells of the assay plate during reading in FLIPR.
The fun ctional activit y of SAB on the adrener gi c α1B re ceptor we re tested b y […]

[7] = target: T2, P2Y1 receptor; assay: Antagonism of 2MeSADP-induced IP-1 accumulation, Schild analysis; assay type: cell-based; parameters: expressed in transfected cells; host or cells: U2OS cells
Method: as §2
Inositol 1-phosphate (IP-1) was measured using the IP-One Tb HTRF kit (Cisbio Bioassays, Bedford, MA) as described previously[60],[61]. Briefly, after overnight growth, U2Os cells expressing the P2Y1 receptor were first treated with an antagonist for 20 min before the treatment with agonist and incubated for another 60 min. IP-1 detection reagents were added as instructed by the manual from the manufacturer. The assay plates were read on a Mithras LB940 reader (Berthold Technologies, Oak Ridge, TN) using a time-resolved fluorescence ratio (665/620 nm).

SMILES: O=C(C=Cc1ccc(O)c2c1C(C(=O)OC(Cc1ccc(O)c(O)c1)C(=O)O)C(c1ccc(O)c(O)c1)O2)OC(Cc1ccc(O)c(O)c1)C(=O)O (stereo not shown) [SAB, salvianolic acid B]
t1/2 ([1]; 100 mg/kg, i.v.): about 105 min
t1/2 ([1]; 500 mg/kg, p.o.): 4.13 h
Ki [2]: 36.4 ± 20.3 µM
inhibition of [3H]2MeSADP binding at the human P2Y12 receptor ([2]; 100 µM compound): significant inhibitory effect
inhibitory effect on [3H]2MeSADP binding to the P2Y1 receptor (initial binding results) [3]: significantly weaker
Kb [4]: 33.6 ± 6.4 µM
Ki [5]: 6.26 ± 1.46 µM
agonist activity on α1B ([6]; FLIPR agonist assay): did not show agonist activity; also recorded: neither agonist nor antagonist
antagonist activity on α1B ([6]; FLIPR antagonist assay): did not show antagonist activit y; also recorded: neither agonist nor antagonist

SMILES: O=C(/C=C/c1ccc(O)c2oc(-c3ccc(O)c(O)c3)cc12)O[C@H](Cc1ccc(O)c(O)c1)C(=O)O [SAC, salvianolic acid C]
inhibition of [3H]2MeSADP binding at the human P2Y12 receptor ([2]; 100 µM compound): significant inhibitory effect
Ki ([2]; full inhibition curves vs [3H]2MeSADP (0.4 nM), read-out: Ki, P2Y12 receptor binding): 15.6 ± 6.5 µM
IC50 ([3]; absence of Tween-20, read-out: IC50, inhibition of [3H]2MeSADP binding to human P2Y1 receptor): 29.4 µM
inhibitory effect on [3H]2MeSADP binding to the P2Y1 receptor (initial binding results) [3]: substantial inhibitory effect
IC50 ([3]; presence of 0.01% Tween-20, read-out: IC50, inhibition of [3H]2MeSADP binding to human P2Y1 receptor): 23.7 µM
Ki ([3]; vs [3H]2MeSADP (1.0 nM), read-out: Ki, P2Y1 receptor binding): 23.3 ± 4.5 µM
Kb ([7]; U2OS cells expressing P2Y1, IP-1 accumulation, read-out: KB (Schild analysis), P2Y1 receptor): 15.6 ± 2 µM
Kb [4]: 23.7 ± 4.5 µM

inhibition at 100 µM ([2]; 100 µM compound): 31.6 ± 6.2%
SMILES: O=C(/C=C/c1ccc(O)c(O)c1)O[C@H](Cc1ccc(O)c(O)c1)C(=O)O [rosmarinic acid]

SMILES: O=C(/C=C/c1ccc(O)c(O)c1/C=C/c1ccc(O)c(O)c1)O[C@H](Cc1ccc(O)c(O)c1)C(=O)O [SAA, salvianolic acid A]
t1/2 ([1]; 100 mg/kg, p.o.): 3.28 h
Ki [2]: 20.3 ± 1.5 µM
inhibition of [3H]2MeSADP binding at the human P2Y12 receptor ([2]; 100 µM compound): significant inhibitory effect
Ki [3]: 14.7 ± 2.4 µM
IC50 ([3]; IC50, inhibition of [3H]2MeSADP binding to human P2Y1 receptor, absence of Tween-20): 21.2 µM
IC50 ([3]; IC50, inhibition of [3H]2MeSADP binding to human P2Y1 receptor, presence of 0.01% Tween-20): 19.3 µM
inhibitory effect on [3H]2MeSADP binding to the P2Y1 receptor (initial binding results) [3]: substantial inhibitory effect
Kb [7]: 9.1 ± 1.5 µM
Kb [4]: 24.2 ± 5.9 µM

inhibition of [3H]2MeSADP binding at the human P2Y12 receptor ([2]; 100 µM compound): 33.5 ± 8.6%
SMILES: O=C(O)Cc1c(/C=C/C(=O)O[C@H](Cc2ccc(O)c(O)c2)C(=O)O)ccc(O)c1O [salvianolic acid D]
